Legend:
Experiment in all cases: Bliss excess, mean over the matrix (fraction); higher = more synergy
[1] = tested on: 23132-87 (Gastric Carcinoma)
Procedure, shortened: (§1)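 Bliss excess equals the observed combination effect minus the expected value EA + EB − EA·EB, where EA and EB are the effects of each agent alone. Combination Emax is the second-highest inhibition within the matrix. Inhibition was scaled from CellTiter-Glo 2.0 luminescence, with 0 set by vehicle wells and 1 by blank wells, after 72 hours of two-drug dosing of cells plated in 1536-well plates.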

[2] = tested on: CAL-120 (Breast Carcinoma)
Procedure, shortened: as §1

[3] = tested on: CAL-62 (Thyroid Gland Carcinoma)
Procedure, shortened: as §1

GB-1 (Glioblastoma) = tested on: GB-1 (Glioblastoma)
Procedure, shortened: as §1

[4] = tested on: HCT-15 (Colorectal Carcinoma)
Procedure, shortened: as §1

[5] = tested on: HSC-39 (Gastric Carcinoma)
Procedure, shortened: as §1

[6] = tested on: L-1236 (Hodgkin's Lymphoma)
Procedure, shortened: as §1

[7] = tested on: LB996-RCC (Kidney Carcinoma)
Procedure, shortened: as §1

[8] = tested on: LXF-289 (Lung Adenocarcinoma)
Procedure, shortened: as §1

[9] = tested on: OPM-2 (Plasma Cell Myeloma)
Procedure, shortened: as §1

[10] = tested on: OVMIU (Ovarian Carcinoma)
Procedure, shortened: as §1

[11] = tested on: PSN1 (Pancreatic Carcinoma)
Procedure, shortened: as §1

[12] = tested on: RCM-1 (Colorectal Carcinoma)
Procedure, shortened: as §1

[13] = tested on: REH (B-Lymphoblastic Leukemia)
Procedure, shortened: as §1

[14] = tested on: RERF-GC-1B (Gastric Carcinoma)
Procedure, shortened: as §1

[15] = tested on: RKN (Other Solid Carcinomas)
Procedure, shortened: as §1

[16] = tested on: SU-DHL-10 (B-Cell Non-Hodgkin's Lymphoma)
Procedure, shortened: as §1

[17] = tested on: TE-8 (Esophageal Squamous Cell Carcinoma)
Procedure, shortened: as §1

[18] = tested on: VAL (B-Cell Non-Hodgkin's Lymphoma)
Procedure, shortened: as §1

WM278 (Melanoma) = tested on: WM278 (Melanoma)
Procedure, shortened: as §1

| Compound | Bliss excess [1] | Bliss excess [2] | Bliss excess [3] | Bliss excess (GB-1 (Glioblastoma)) | Bliss excess [4] | Bliss excess [5] | Bliss excess [6] | Bliss excess [7] | Bliss excess [8] | Bliss excess [9] | Bliss excess [10] | Bliss excess [11] | Bliss excess [12] | Bliss excess [13] | Bliss excess [14] | Bliss excess [15] | Bliss excess [16] | Bliss excess [17] | Bliss excess [18] | Bliss excess (WM278 (Melanoma)) |
| --- | --- | --- | --- | --- | --- | --- | --- | --- | --- | --- | --- | --- | --- | --- | --- | --- | --- | --- | --- | --- |
| CC1(C)CCC(CN2CCN(c3ccc(C(=O)NS(=O)(=O)c4ccc(NCC5CCOCC5)c([N+](=O)[O-])c4)c(Oc4cnc5[nH]ccc5c4)c3)CC2)=C(c2ccc(Cl)cc2)C1 [Venetoclax] + CCN(CCO)CCCOc1ccc2c(Nc3cc(CC(=O)Nc4cccc(F)c4)[nH]n3)ncnc2c1 [AZD2811] (first compound max 1 µM, 7x7, partner max 1 µM) | -0.0136 | -0.014 | 0.0363 | -0.0501 | 0.0051 | 0.0077 | -0.0197 | -0.0133 | -0.0678 | 0.085 | -0.0851 | -0.0478 | -0.0144 | 0.18 | 0.0028 | -0.011 | -0.0844 | 0.0482 | 0.0158 | -0.0119 |
| CC1(C)CCC(CN2CCN(c3ccc(C(=O)NS(=O)(=O)c4ccc(NCC5CCOCC5)c([N+](=O)[O-])c4)c(Oc4cnc5[nH]ccc5c4)c3)CC2)=C(c2ccc(Cl)cc2)C1 [Venetoclax] + CN(C)CCCOc1ccc(-c2ccc3ncc4c(c3c2)n(C2CCOCC2)c(=O)n4C)cn1 [AZD0156] (first compound max 1 µM, 7x7, partner max 1 µM) | -0.0015 | -0.0307 | 0.0063 | -0.0206 | -0.0192 | 0.015 | -0.0182 | -0.0398 | -0.0157 | 0.0271 | -0.111 | -0.0421 | -0.0086 | 0.0037 | -0.0356 | -0.0862 | -0.0043 | -0.0574 | 0.0308 | -0.0496 |
| CC1(C)CCC(CN2CCN(c3ccc(C(=O)NS(=O)(=O)c4ccc(NCC5CCOCC5)c([N+](=O)[O-])c4)c(Oc4cnc5[nH]ccc5c4)c3)CC2)=C(c2ccc(Cl)cc2)C1 [Venetoclax] + COc1cc(Nc2ncc3c(n2)-c2ccc(Cl)cc2C(c2c(F)cccc2OC)=NC3)ccc1C(=O)O [Alisertib] (first compound max 1 µM, 7x7, partner max 10 µM) | -0.0303 | -0.0182 | -0.0092 | -0.03 | -0.0034 | -0.103 | -0.05 | -0.0096 | -0.0953 | 0.272 | -0.151 | -0.0219 | -0.0717 | 0.22 | -0.0274 | -0.0516 | 0.0409 | 0.0171 | 0.0174 | 0.0416 |
| CC1(C)CCC(CN2CCN(c3ccc(C(=O)NS(=O)(=O)c4ccc(NCC5CCOCC5)c([N+](=O)[O-])c4)c(Oc4cnc5[nH]ccc5c4)c3)CC2)=C(c2ccc(Cl)cc2)C1 [Venetoclax] + C[C@@H]1COCCN1C2=NC(=NC(=C2)C3(CC3)[S@](=N)(=O)C)C4=C5C=CNC5=NC=C4 [AZD6738] (first compound max 1 µM, 7x7, partner max 10 µM) | -0.0422 | -0.0118 | 0.0023 | -0.0281 | -0.0084 | 0.0079 | -0.019 | -0.066 | -0.0138 | -0.0462 | -0.111 | -0.0848 | -0.0542 | 0.0493 | -0.0579 | -0.058 | 0.0138 | -0.0603 | 0.004 | -0.0712 |
| CC1(C)CCC(CN2CCN(c3ccc(C(=O)NS(=O)(=O)c4ccc(NCC5CCOCC5)c([N+](=O)[O-])c4)c(Oc4cnc5[nH]ccc5c4)c3)CC2)=C(c2ccc(Cl)cc2)C1 [Venetoclax] + C[C@@H](Nc1cc(F)cc(F)c1)c1cc(C(=O)N(C)C)cc2c(=O)cc(N3CCOCC3)oc12 [AZD8186] (first compound max 1 µM, 7x7, partner max 3 µM) | -0.036 | -0.0194 | -0.0173 | -0.0076 | -0.0184 | -0.0503 | -0.0261 | 0.0035 | -0.0008 | -0.0134 | -0.129 | -0.0683 | -0.0495 | 0.01 | -0.028 | -0.0289 | 0.0052 | -0.0522 | 0.0557 | -0.0199 |
| CC1(C)CCC(CN2CCN(c3ccc(C(=O)NS(=O)(=O)c4ccc(NCC5CCOCC5)c([N+](=O)[O-])c4)c(Oc4cnc5[nH]ccc5c4)c3)CC2)=C(c2ccc(Cl)cc2)C1 [Venetoclax] + Cc1cc2ncnn2cc1Nc1ncc2c(n1)n(C1CCOCC1)c(=O)n2C [AZD7648] (first compound max 1 µM, 7x7, partner max 10 µM) | -0.0008 | -0.0338 | -0.025 | -0.0591 | -0.0043 | -0.0289 | -0.0274 | -0.0258 | -0.0935 | -0.0263 | -0.109 | -0.0534 | -0.0533 | 0.0108 | -0.0276 | -0.062 | -0.0139 | -0.0121 | 0.012 | -0.0476 |
| CC1(C)CCC(CN2CCN(c3ccc(C(=O)NS(=O)(=O)c4ccc(NCC5CCOCC5)c([N+](=O)[O-])c4)c(Oc4cnc5[nH]ccc5c4)c3)CC2)=C(c2ccc(Cl)cc2)C1 [Venetoclax] + Cn1cnc2c(F)c(Nc3ccc(Br)cc3Cl)c(C(=O)NOCCO)cc21 [Selumetinib] (first compound max 1 µM, 7x7, partner max 3 µM) | -0.0507 | -0.0174 | -0.0114 | -0.0366 | -0.0231 | -0.048 | -0.0319 | -0.0209 | -0.0312 | -0.0093 | -0.0641 | -0.0262 | -0.0369 | -0.0467 | 0.0095 | -0.0034 | -0.0123 | -0.0282 | -0.0069 | -0.0319 |
